Measurements as given in patent publication US11919904B2, “Sulfonylamide compounds as CDK2 inhibitors” (Incyte Corporation, priority 2019, dated 2024).

How the values were obtained:
[1] = system: Rb phosphorylation at S780 in CCNE1-non-amplified cell lines (COV504 and OV56); assay: Western blot of Rb phosphorylation at S780 in CCNE1-non-amplified cell lines; type: cell-based, human; conditions: one or 15 hours after treatment, various doses
Description: The effect of CDK4/6-inhibition on Rb phosphorylation at S780 in CCNE1-amplified versus CCNE1-non-amplified cell lines was evaluated. […] One or 15 hours after treatment, the cells were harvested and total protein was extracted and analyzed by western blot (FIG. 8).
Whole cell extracts were prepared using RIPA buffer (Thermo Scientific, 89900) with a Halt Protease and Phosphatase Inhibitor Cocktail (Thermo Scientific, 78440). Protein concentration was quantified with a BCA Protein Assay Kit (Thermo Scientific, 23225) and 40 μg of protein lysates were loaded for SDS-PAGE using precast gradient gels (Bio-Rad, Hercules, No. 456-1094). Samples were diluted in 5×Laemmli buffer (300 mM Tris-HCl pH 6.8, 10% SDS (w/v), 5% 2-mercaptoethanol, 25% glycerol (v/v), 0.1% bromophenol blue w/v) and boiled for 5 minutes. […] of proteins were separated by 8-15% SDS-PAGE and transferred onto polyvinylidene fluoride (PVDF) membranes. Unspecific binding sites on the PVDF membranes were blocked with 5% non-fat milk in TBST (20 mM Tris-HCl, pH 7.6, 137 mM NaCl, 1% Tween-20). […] Images were captured by Luminescence/Fluorescence Imaging System Odyssey CLx Imager (LI-COR).

[2] = system: CCNE1-non-amplified cell lines (COV504, OV56, Igrov1); assay: Cell cycle analysis by FACS in CCNE1-non-amplified cell lines; type: cell-based, human
Description: (§1) The effect of CDK4/6-inhibition in CCNE1-amplified versus CCNE1-non-amplified cell lines was evaluated.
(§2) A similar experiment was performed in a larger set of CCNE1-amplified cell lines (COV318 and OVCAR3) and CCNE1-non-amplified cell lines (COV504, OV56, and Igrov1) (FIG. 6).
(§3) Bulk DNA was stained with DAPI. Compound-treated and DMSO treated control cells were acquired with CytoFlex (Beckman Coulter) and were analyzed using the FlowJo software. For cell cycle analysis of cells with siRNA knockdown, 72 hours after siRNA transfection, cells exposed to 10 μM EdU for 3 hours before detection of Click-iT Alexa Fluor® 647 azide kit.

[3] = system: CCNE1-amplified cell lines (COV318, OVCAR3); assay: Cell cycle analysis by FACS in CCNE1-amplified cell lines; type: cell-based, human; conditions: COV318 and OVCAR3; 16 hours after treatment; compared to DMSO
Description: as §1, §2, §3

[4] = system: Rb phosphorylated on serine 780 in CCNE1 amplified COV318 cells; assay: CDK2 pRb (S780) HTRF cellular assay; type: cell-based; conditions: Homo sapiens, FIG. 10B
Description: CDK2 pRb ([…]) HTRF cellular assay enables the quantitative detection of Rb phosphorylated on […] in CCNE1 amplified COV318 cells. The assay comprised two antibodies: Europium cryptate labeled anti-Phospho-Rb […] antibody (donor) and d2 labeled anti-Rb antibody (acceptor). […] The final concentrations of compounds start from 3 μM. […] After 2 h of incubation at room temperature, HTRF signals were measured on the PHERAstar microplate reader (BMG Labtech), using 340 nm as excitation wavelength, a 620 nm filter for the Europium donor fluorescence, and a 665-nm filter for the acceptor fluorescence detection. HTRF signals were calculated as the HTRF ratio (ratio of fluorescence measured at 665 nm and 620 nm)×10000.

CC(=O)c1c(C)c2cnc(Nc3ccc(N4CCNCC4)cn3)nc2n(C2CCCC2)c1=O [palbociclib]
Rb phosphorylation at S780 [1]: blocked Rb phosphorylation at S780 | percentage of cells at the S phase ([2]; COV504, OV56, Igrov1, 16 hours after treatment, compared to DMSO): decreased in CCNE1-non-amplified cell lines in a dose-dependent fashion | proliferation (cell cycle analysis by FACS) ([2]; COV504 cells, sixteen hours after treatment, increasing concentrations): dose-dependent inhibition of the proliferation | percentage of cells at the S phase [3]: not significantly different | IC50 [4]: > 3000 nM
